The text below walks through data of patent US8557848B2, “4,5-ring annulated indole derivatives for treating or preventing of HCV and related viral infections” (Merck Sharp & Dohme Corp., priority 2006, dated 2013).

pEC50, pIC50: −log10 of the molar value. Like-named read-outs stand apart in the source and are kept apart here.

For assay [1], the target named is T1, HCV NS5B polymerase (NS5BΔCT21, from HCV-Con 1 isolate, genotype 1b) (Hepatitis C virus genotype 1b, UniProt Q9WMX2).
T1 construct: A soluble C-terminal 21-amino acid truncated NS5B enzyme form; polyhistidine (C); made in house; host or cells: Escherichia coli
Put plainly: HCV NS5B Polymerase Inhibition Assay. The assay is classed as biochemical. An outline of the steps: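 His-tagged NS5BΔCT21 (30 or 150 nM) with 0.03 μM DCoH75 RNA template, 0.25 mM GAU, 0.1 μM ATP/GTP/UTP, 0.026 μM CTP plus [^33P]-CTP, pH 7.3, 2% DMSO; 2 h at 22° C. Incorporated radioactivity counted after filter capture. IC50 from 10-point 2-fold dilutions (top 200 μM to 1 μM) fitted to Hill equation.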

The test system of assay [2] is HCV replicon cells (replicon RNA level). Put plainly: Cell-Based HCV Replicon Assay. The note with it: Hepatitis C virus, 72 h; replicon RNA level by real time PCR (Taqman), cells harvested on day 3; read-out: EC50. In a few lines: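 Replicon cells at 5000/well received 10 serial 2-fold compound dilutions in 0.5% DMSO, 5% FBS, harvested day 3. Replicon RNA quantified by multiplex Taqman RT-PCR on NS5B versus GAPDH; EC50 and EC90 taken at ΔCT = 1 and 3.2 above baseline from sigmoid fits.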
(In general: Replicon systems follow genome replication, usually without infectious particles.)

[3] abbreviates: NS5B polymerase inhibition, [33P]-CTP incorporation, 22° C. for 2 hours, read-out: IC50.

What is called pIC50 is −log10 of the IC50, conventionally taken in molar units. Broadly, the pEC50 is the EC50 on a negative log10 scale, so that one unit is a factor of ten. Take `Nc1noc2ccc(Cn3c(C(=O)O)c(-c4ccc[nH]c4=O)c4c5occc5c(F)cc43)cc12` [Compound 102]: the negative-log IC50 (pIC50) in assay [1] (setting [3]) is over 7.60. Further, in assay [2], the pEC50 was over 6.30.

Regarding `CS(=O)(=O)NC(=O)c1c(-c2ccc[nH]c2=O)c2c3c(ccc2n1Cc1ccccc1F)OC(F)(F)O3` [Compound 56], in assay [1], the pIC50 is over 7.60. In assay [2], the pEC50 is under 5.82.

As for `COc1ccc2nc(Cl)c(Cn3c(C(=O)O)c(-c4ccc[nH]c4=O)c4c5occc5c(F)cc43)cc2c1` [Compound 154], in assay [1] (setting [3]), the pIC50 was over 7.60. Besides, in assay [2], the pEC50 is over 6.30.

Consider `CS(=O)(=O)NC(=O)c1c(-c2ccc[nH]c2=O)c2c3c(ccc2n1Cc1cc(F)ccc1F)CCO3` [Compound 59], for which, in assay [1], the pIC50 is over 7.60. In assay [2], the pEC50 is over 6.30.

As for `O=C(NS(=O)(=O)C1CC1)c1c(-c2ccc[nH]c2=O)c2c3occc3c(F)cc2n1Cc1cc(=O)[nH]cc1F` [Compound 174], the pIC50 in assay [1] (setting [3]) is over 7.60. Besides, in assay [2], the pEC50 was over 6.30.

In the case of `NC(=O)c1ccc(F)c(Cn2c(C(=O)O)c(-c3ccc[nH]c3=O)c3c4occc4ccc32)c1` [Compound 94], the negative logarithm of the IC50 (pIC50) in assay [1] (setting [3]) was over 7.60. The pEC50 in assay [2] was over 6.30.

`O=C(O)c1c(-c2ccc[nH]c2=O)c2c3c(ccc2n1Cc1cc(F)ccc1F)OC(F)(F)O3` [Compound 37]: in assay [1] (setting [3]), the pIC50 is over 7.60. Also, the negative-log EC50 (pEC50) in assay [2] is under 5.82.

Regarding `O=C(NS(=O)(=O)C1CC1)c1c(-c2ccc[nH]c2=O)c2c3ncsc3ccc2n1Cc1cc2ccccc2nc1Cl` [Compound 209], in assay [1] (setting [3]), the pIC50 was over 7.60. The pEC50 in assay [2] is over 6.30.

As to `Cc1ccccc1Cn1c(C(=O)NS(=O)(=O)C2CC2)c(-c2ccc[nH]c2=O)c2c3occc3ccc21` [Compound 138], the negative-log IC50 (pIC50) in assay [1] (setting [3]) is over 7.60. Also, the negative-log EC50 (pEC50) in assay [2] is over 6.30.

With `CC(C)S(=O)(=O)NC(=O)c1c(-c2ccc[nH]c2=O)c2c3occc3c(F)cc2n1Cc1csc(C(N)=O)c1` [Compound 186], the pIC50 in assay [1] (setting [3]) is over 7.60. Further, the pEC50 in assay [2] was over 6.30.

With `O=C(O)c1c(-c2ccc[nH]c2=O)c2c3occc3c(F)cc2n1Cc1cc(F)ccc1F` [Compound 89], the pIC50 in assay [1] (setting [3]) was over 7.60. Further, in assay [2], the pEC50 is over 6.30.

As for `Cc1coc2c1ccc1c2c(-c2ccc[nH]c2=O)c(C(=O)O)n1Cc1cc(F)ccc1F` [Compound 47], in assay [1] (setting [3]), the pIC50 was under 7.00. Also, the pEC50 in assay [2] is under 5.82.

In the case of `NC(=O)c1ccc(F)c(Cn2c(C(=O)O)c(-c3ccc[nH]c3=O)c3c4occc4c(F)cc32)c1` [Compound 107], the pIC50 in assay [1] (setting [3]) is over 7.60. In assay [2], the negative logarithm of the EC50 (pEC50) was over 6.30.

For the molecule `CC(C)S(=O)(=O)NC(=O)c1c(-c2ccc[nH]c2=O)c2c3c(c(F)cc2n1Cc1cc2ccccc2nc1Cl)CCO3` [Compound 216], the negative-log IC50 (pIC50) in assay [1] (setting [3]) was over 7.60. In addition, the pEC50 in assay [2] is over 6.30.

Take `Cc1ccc2nc(Cl)c(Cn3c(C(=O)O)c(-c4ccc[nH]c4=O)c4c5occc5c(F)cc43)cc2c1` [Compound 140]: the negative-log IC50 (pIC50) in assay [1] (setting [3]) was over 7.60. For the same molecule, the negative-log EC50 (pEC50) in assay [2] was over 6.30.

Consider `NC(=O)c1cnc(F)c(Cn2c(C(=O)NS(=O)(=O)C3CC3)c(-c3ccc[nH]c3=O)c3c4occc4c(F)cc32)c1` [Compound 197], for which the pIC50 in assay [1] (setting [3]) is over 7.60. Further, the negative logarithm of the EC50 (pEC50) in assay [2] was over 6.30.

`O=C(NS(=O)(=O)C1CC1)c1c(-c2ccc[nH]c2=O)c2c3occc3ccc2n1Cc1cc(F)ccc1F` [Compound 62]: the pIC50 in assay [1] (setting [3]) was over 7.60. In assay [2], the pEC50 was over 6.30.

Turning to `CN(C)S(=O)(=O)NC(=O)c1c(-c2ccc[nH]c2=O)c2c3occc3c(F)cc2n1Cc1cc2ccccc2nc1Cl` [Compound 215], the negative-log IC50 (pIC50) in assay [1] (setting [3]) is over 7.60. In addition, the negative logarithm of the EC50 (pEC50) in assay [2] was over 6.30.

`NC(=O)c1cc(Cn2c(C(=O)NS(=O)(=O)C3CC3)c(-c3ccc[nH]c3=O)c3c4c(c(F)cc32)CCO4)cs1` [Compound 185]: in assay [1] (setting [3]), the pIC50 was over 7.60. Moreover, the negative logarithm of the EC50 (pEC50) in assay [2] was over 6.30.

For `Cc1cccc(Cn2c(C(=O)NS(=O)(=O)C3CC3)c(-c3ccc[nH]c3=O)c3c4occc4c(F)cc32)c1F` [Compound 171], the negative logarithm of the IC50 (pIC50) in assay [1] (setting [3]) is over 7.60. Further, the pEC50 in assay [2] was over 6.30.

As for `O=C(O)c1c(-c2ccc[nH]c2=O)c2c3occc3c(F)cc2n1Cc1cc2nc[nH]c2cc1Cl` [Compound 120], the pIC50 in assay [1] (setting [3]) was over 7.60. Further, in assay [2], the negative-log EC50 (pEC50) is over 6.30.

With `O=C(O)c1c(-c2ccc[nH]c2=O)c2c3occ(Cl)c3c(F)cc2n1Cc1cc(F)ccc1F` [Compound 119], the pIC50 in assay [1] (setting [3]) is over 7.60. In assay [2], the pEC50 was over 6.30.

With `O=C(O)c1c(-c2ccc[nH]c2=O)c2c3occc3c(F)cc2n1Cc1nc(Br)ccc1F` [Compound 136], the pIC50 in assay [1] (setting [3]) is over 7.60. The negative logarithm of the EC50 (pEC50) in assay [2] is over 6.30.
